“And” between values parts separate entries of the source, which are not always exact repeats. Equal values may be shown once.
Columns and labels:
[1] = biological target: T1, wt human TYK2, catalytic site (Homo sapiens, UniProt P29597); test: HTRF KinEASE assay, TYK2; format: biochemical; details: 1 μM ATP; read-out: IC50, Activity Toward TYK2
T1 construct: wt human TYK2, catalytic site; purchased SignalChem
T1 sequence (P29597 897-1176 limits assumed): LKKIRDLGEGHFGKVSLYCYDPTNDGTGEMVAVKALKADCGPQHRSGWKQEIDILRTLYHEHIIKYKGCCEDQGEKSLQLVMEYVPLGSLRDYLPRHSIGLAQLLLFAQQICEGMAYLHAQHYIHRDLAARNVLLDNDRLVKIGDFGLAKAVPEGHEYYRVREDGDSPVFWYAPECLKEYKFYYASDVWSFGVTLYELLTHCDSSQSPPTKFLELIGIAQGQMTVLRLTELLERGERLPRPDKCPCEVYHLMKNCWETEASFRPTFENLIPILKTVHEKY
In short: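 Kinase reaction run at room temperature for at least 30 min: 2 nM TYK2 with 1 μM ATP, or 1 nM JAK2 with 100 μM ATP, each with 1 μM biotin-TK substrate. Phosphorylation detected by HTRF (60 min antibody/XL665) and evaluated from emission ratios.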

[2] = biological target: T2, wt human JAK1, catalytic site (Homo sapiens, UniProt P23458); test: HTRF KinEASE assay, JAK1; format: biochemical; details: 2.5 μM ATP; read-out: IC50, Activity Toward JAK1
T2 construct: wt human JAK1, catalytic site; purchased ThermoFisher
T2 sequence (P23458 875-1153 limits assumed): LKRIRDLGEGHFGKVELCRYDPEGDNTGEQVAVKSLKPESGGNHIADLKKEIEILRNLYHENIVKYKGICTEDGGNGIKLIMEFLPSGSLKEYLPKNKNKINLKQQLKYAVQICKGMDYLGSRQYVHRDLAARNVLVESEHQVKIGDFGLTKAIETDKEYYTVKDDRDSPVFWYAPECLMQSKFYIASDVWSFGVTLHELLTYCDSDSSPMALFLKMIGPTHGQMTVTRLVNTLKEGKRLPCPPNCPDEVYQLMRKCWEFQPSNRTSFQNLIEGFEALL
In short: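 Compounds in DMSO dilution were mixed with kinase, biotin-TK substrate and ATP and reacted for ≥30 min at room temperature. Detection reagents (antibody, streptavidin-XL665) were read 60 min later as HTRF, with emission ratios analysed per KinEASE protocol.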

SMILES	IC50 [1]	IC50 [2]
Cn1ccc(Nc2cn(-c3c(Cl)cccc3Cl)nc2C(N)=O)cc1=O [compound 381, 1-(2,6-dichlorophenyl)-4-((1-methyl-2-oxo-1,2-dihydropyridin-4-yl)amino)-1H-pyrazole-3-carboxamide]	100 to 1000 nM	100 to 1000 nM
NC(=O)c1nn(-c2c(Cl)cccc2Cl)cc1Nc1ccc(C(=O)N2CCN(C3CC3)CC2)cn1 [compound 383, 4-((5-(4-cyclopropylpiperazine-1-carbonyl)pyridin-2-yl)amino)-1-(2,6-dichlorophenyl)-1H-pyrazole-3-carboxamide]	10 to 100 nM and 100 to 1000 nM	100 to 1000 nM
NC(=O)c1nn(-c2c(Cl)cccc2Cl)cc1Nc1ccc(N2CCCCC2=O)nc1 [compound 384, 1-(2,6-dichlorophenyl)-4-((6-(2-oxopiperidin-1-yl)pyridin-3-yl)amino)-1H-pyrazole-3-carboxamide]	100 to 1000 nM	100 to 1000 nM
NC(=O)c1nn(-c2c(Cl)cccc2Cl)cc1Nc1ccc(-n2nc(C(F)(F)F)nc2CO)nc1 [compound 385, 1-(2,6-dichlorophenyl)-4-((6-(5-(hydroxymethyl)-3-(trifluoromethyl)-1H-1,2,4-triazol-1-yl)pyridin-3-yl)amino)-1H-pyrazole-3-carboxamide]	10 to 100 nM	100 to 1000 nM
NC(=O)c1nn(-c2c(Cl)cccc2Cl)cc1Nc1ccc(-n2ccccc2=O)nc1 [compound 390, 1-(2,6-dichlorophenyl)-4-((2-oxo-2H-[1,2′-bipyridin]-5′-yl)amino)-1H-pyrazole-3-carboxamide]	100 to 1000 nM	100 to 1000 nM
COc1ccc(Cn2cc(Nc3cn(-c4c(Cl)cccc4Cl)nc3C(N)=O)cn2)cc1 [compound 392, 1-(2,6-dichlorophenyl)-4-((1-(4-methoxybenzyl)-1H-pyrazol-4-yl)amino)-1H-pyrazole-3-carboxamide]	100 to 1000 nM	100 to 1000 nM
CC(C)c1nnnn1-c1ccc(Nc2cn(-c3c(Cl)cccc3Cl)nc2C(N)=O)cn1 [compound 393, 1-(2,6-dichlorophenyl)-4-((6-(5-isopropyl-1H-tetrazol-1-yl)pyridin-3-yl)amino)-1H-pyrazole-3-carboxamide]	100 to 1000 nM	100 to 1000 nM
NC(=O)c1nn(-c2c(Cl)cccc2Cl)cc1Nc1ccn(-c2ccccn2)n1 [compound 397, 1-(2,6-dichlorophenyl)-4-((1-(pyridin-2-yl)-1H-pyrazol-3-yl)amino)-1H-pyrazole-3-carboxamide]	100 to 1000 nM	100 to 1000 nM
Cc1cc(C)n(-c2ccc(Nc3cn(-c4c(Cl)cccc4Cl)nc3C(N)=O)cn2)n1 [compound 398, 1-(2,6-dichlorophenyl)-4-((6-(3,5-dimethyl-1H-pyrazol-1-yl)pyridin-3-yl)amino)-1H-pyrazole-3-carboxamide]	100 to 1000 nM	100 to 1000 nM
NC(=O)c1nn(-c2c(Cl)cccc2Cl)cc1Nc1cnc(C(=O)N2CCOCC2)cn1 [compound 401, 1-(2,6-dichlorophenyl)-4-((5-(morpholine-4-carbonyl)pyrazin-2-yl)amino)-1H-pyrazole-3-carboxamide]	100 to 1000 nM	100 to 1000 nM
CN1CCN(C(=O)c2cnc(Nc3cn(-c4c(Cl)cccc4Cl)nc3C(N)=O)cn2)CC1 [compound 402, 1-(2,6-dichlorophenyl)-4-((5-(4-methylpiperazine-1-carbonyl)pyrazin-2-yl)amino)-1H-pyrazole-3-carboxamide]	100 to 1000 nM	100 to 1000 nM
CN1CCC(Oc2ccc(Nc3cn(-c4c(Cl)cccc4Cl)nc3C(N)=O)cn2)CC1 [compound 405, 1-(2,6-dichlorophenyl)-4-((6-((1-methylpiperidin-4-yl)oxy)pyridin-3-yl)amino)-1H-pyrazole-3-carboxamide]	100 to 1000 nM	100 to 1000 nM
CCc1cnnn1-c1ccc(Nc2cn(-c3c(Cl)cccc3Cl)nc2C(N)=O)cc1 [compound 411, 1-(2,6-dichlorophenyl)-4-((4-(5-ethyl-1H-1,2,3-triazol-1-yl)phenyl)amino)-1H-pyrazole-3-carboxamide]	< 10 nM	10 to 100 nM
NC(=O)c1nn(-c2c(Cl)cc(F)cc2Cl)cc1Nc1ccc(C(=O)N2CCOCC2)cc1 [compound 412, 1-(2,6-dichloro-4-fluorophenyl)-4-((4-(morpholine-4-carbonyl)phenyl)amino)-1H-pyrazole-3-carboxamide]	10 to 100 nM	10 to 100 nM
CN1CCC(N(C)C(=O)c2ccc(Nc3cn(-c4c(Cl)cc(F)cc4Cl)nc3C(N)=O)cc2)CC1 [compound 413, 1-(2,6-dichloro-4-fluorophenyl)-4-((4-(methyl(1-methylpiperidin-4-yl)carbamoyl)phenyl)amino)-1H-pyrazole-3-carboxamide]	< 10 nM	10 to 100 nM
COCCNC(=O)c1ccc(Nc2cn(-c3c(Cl)cccc3Cl)nc2C(N)=O)cc1 [compound 419, 1-(2,6-dichlorophenyl)-4-((4-((2-methoxyethyl)carbamoyl)phenyl)amino)-1H-pyrazole-3-carboxamide]	10 to 100 nM	10 to 100 nM
COCCCNC(=O)c1ccc(Nc2cn(-c3c(Cl)cccc3Cl)nc2C(N)=O)cc1 [compound 420, 1-(2,6-dichlorophenyl)-4-((4-((3-methoxypropyl)carbamoyl)phenyl)amino)-1H-pyrazole-3-carboxamide]	100 to 1000 nM	100 to 1000 nM
NC(=O)c1nn(-c2c(Cl)cccc2Cl)cc1Nc1ccc(N2CCOCC2)cn1 [compound 428, 1-(2,6-dichlorophenyl)-4-((5-morpholinopyridin-2-yl)amino)-1H-pyrazole-3-carboxamide]	100 to 1000 nM	100 to 1000 nM
Cc1cccc2nnc(-c3ccc(Nc4cn(-c5c(Cl)cccc5Cl)nc4C(N)=O)nc3)n12 [compound 429, 1-(2,6-dichlorophenyl)-4-((5-(5-methyl-[1,2,4]triazolo[4,3-a]pyridin-3-yl)pyridin-2-yl)amino)-1H-pyrazole-3-carboxamide]	10 to 100 nM	100 to 1000 nM
Cc1ncnn1-c1ccc(Nc2cn(-c3c(Cl)cccc3Cl)nc2C(N)=O)nc1 [compound 430, 1-(2,6-dichlorophenyl)-4-((5-(5-methyl-1H-1,2,4-triazol-1-yl)pyridin-2-yl)amino)-1H-pyrazole-3-carboxamide]	100 to 1000 nM	100 to 1000 nM
CCn1ncnc1-c1ccc(Nc2cn(-c3c(Cl)cccc3Cl)nc2C(N)=O)nc1 [compound 431, 1-(2,6-dichlorophenyl)-4-((5-(1-ethyl-1H-1,2,4-triazol-5-yl)pyridin-2-yl)amino)-1H-pyrazole-3-carboxamide]	100 to 1000 nM	10 to 100 nM
Cc1cnnn1-c1ccc(Nc2cn(-c3c(Cl)cccc3Cl)nc2C(N)=O)nc1 [compound 432, 1-(2,6-dichlorophenyl)-4-((5-(5-methyl-1H-1,2,3-triazol-1-yl)pyridin-2-yl)amino)-1H-pyrazole-3-carboxamide]	100 to 1000 nM	10 to 100 nM
Cn1cc(C(F)(F)F)nc1-c1ccc(Nc2cn(-c3c(Cl)cccc3Cl)nc2C(N)=O)nc1 [compound 433, 1-(2,6-dichlorophenyl)-4-((5-(1-methyl-4-(trifluoromethyl)-1H-imidazol-2-yl)pyridin-2-yl)amino)-1H-pyrazole-3-carboxamide]	10 to 100 nM	10 to 100 nM
Cc1nnnn1-c1ccc(Nc2cn(-c3c(Cl)cccc3Cl)nc2C(N)=O)nc1 [compound 435, 1-(2,6-dichlorophenyl)-4-((5-(5-methyl-1H-tetrazol-1-yl)pyridin-2-yl)amino)-1H-pyrazole-3-carboxamide]	10 to 100 nM	10 to 100 nM
NC(=O)c1nn(-c2c(Cl)cccc2Cl)cc1Nc1ccc(-n2nncc2C(F)(F)F)cc1 [compound 438, 1-(2,6-dichlorophenyl)-4-((4-(5-(trifluoromethyl)-1H-1,2,3-triazol-1-yl)phenyl)amino)-1H-pyrazole-3-carboxamide]	10 to 100 nM	100 to 1000 nM
NC(=O)c1nn(-c2c(Cl)cccc2Cl)cc1Nc1ccc(C(=O)N2CC(O)C2)cn1 [compound 439, 1-(2,6-dichlorophenyl)-4-((5-(3-hydroxyazetidine-1-carbonyl)pyridin-2-yl)amino)-1H-pyrazole-3-carboxamide]	100 to 1000 nM	10 to 100 nM
NC(=O)c1nn(-c2c(Cl)cccc2Cl)cc1Nc1ccc(CC(=O)N2CCOCC2)nc1 [compound 440, 1-(2,6-dichlorophenyl)-4-((6-(2-morpholino-2-oxoethyl)pyridin-3-yl)amino)-1H-pyrazole-3-carboxamide]	100 to 1000 nM	10 to 100 nM
NC(=O)c1nn(-c2c(Cl)cccc2Cl)cc1Nc1ccc(CC(=O)N2CC(F)C2)nc1 [compound 441, 1-(2,6-dichlorophenyl)-4-((6-(2-(3-fluoroazetidin-1-yl)-2-oxoethyl)pyridin-3-yl)amino)-1H-pyrazole-3-carboxamide]	100 to 1000 nM	100 to 1000 nM
CN(C)C1CCN(C(=O)c2ccc(Nc3cn(-c4c(Cl)cccc4Cl)nc3C(N)=O)nc2)CC1 [compound 442, 1-(2,6-dichlorophenyl)-4-((5-(4-(dimethylamino)piperidine-1-carbonyl)pyridin-2-yl)amino)-1H-pyrazole-3-carboxamide]	100 to 1000 nM	100 to 1000 nM

Source: patent publication US20230373985A1 (Origenis Gmbh, priority 2020, published 2023)
